Patent US11339128B2 (Firmenich Incorporated, priority 2014, dated 2022)
Where a name gives a salt, the structure may show the parent alone.

Biological target: T1, T1R2/T1R3 taste receptor (Homo sapiens, UniProt Q7RTX0+Q8TE23)
T1 sequence (Q8TE23 20-839): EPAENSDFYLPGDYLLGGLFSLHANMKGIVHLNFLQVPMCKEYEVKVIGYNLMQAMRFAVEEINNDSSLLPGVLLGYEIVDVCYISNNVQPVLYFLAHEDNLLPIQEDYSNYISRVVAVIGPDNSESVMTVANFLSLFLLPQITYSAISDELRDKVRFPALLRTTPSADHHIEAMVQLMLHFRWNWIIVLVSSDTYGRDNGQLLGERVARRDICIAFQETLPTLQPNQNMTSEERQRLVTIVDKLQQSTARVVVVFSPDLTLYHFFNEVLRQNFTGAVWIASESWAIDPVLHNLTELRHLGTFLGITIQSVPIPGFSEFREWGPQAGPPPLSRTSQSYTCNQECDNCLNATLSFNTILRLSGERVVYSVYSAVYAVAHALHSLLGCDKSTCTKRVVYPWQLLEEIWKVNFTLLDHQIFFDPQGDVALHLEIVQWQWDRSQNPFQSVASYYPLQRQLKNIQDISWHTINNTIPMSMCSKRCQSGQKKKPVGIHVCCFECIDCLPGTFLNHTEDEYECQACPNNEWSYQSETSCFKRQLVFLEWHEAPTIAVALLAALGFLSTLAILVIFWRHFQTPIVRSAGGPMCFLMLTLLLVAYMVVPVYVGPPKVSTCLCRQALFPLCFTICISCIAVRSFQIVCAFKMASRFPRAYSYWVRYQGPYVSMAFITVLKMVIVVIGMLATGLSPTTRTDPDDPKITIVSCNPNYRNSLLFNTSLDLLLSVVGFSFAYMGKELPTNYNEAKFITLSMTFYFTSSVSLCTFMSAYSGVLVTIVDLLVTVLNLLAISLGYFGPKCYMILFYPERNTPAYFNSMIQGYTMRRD
T1 sequence (Q7RTX0 21-852): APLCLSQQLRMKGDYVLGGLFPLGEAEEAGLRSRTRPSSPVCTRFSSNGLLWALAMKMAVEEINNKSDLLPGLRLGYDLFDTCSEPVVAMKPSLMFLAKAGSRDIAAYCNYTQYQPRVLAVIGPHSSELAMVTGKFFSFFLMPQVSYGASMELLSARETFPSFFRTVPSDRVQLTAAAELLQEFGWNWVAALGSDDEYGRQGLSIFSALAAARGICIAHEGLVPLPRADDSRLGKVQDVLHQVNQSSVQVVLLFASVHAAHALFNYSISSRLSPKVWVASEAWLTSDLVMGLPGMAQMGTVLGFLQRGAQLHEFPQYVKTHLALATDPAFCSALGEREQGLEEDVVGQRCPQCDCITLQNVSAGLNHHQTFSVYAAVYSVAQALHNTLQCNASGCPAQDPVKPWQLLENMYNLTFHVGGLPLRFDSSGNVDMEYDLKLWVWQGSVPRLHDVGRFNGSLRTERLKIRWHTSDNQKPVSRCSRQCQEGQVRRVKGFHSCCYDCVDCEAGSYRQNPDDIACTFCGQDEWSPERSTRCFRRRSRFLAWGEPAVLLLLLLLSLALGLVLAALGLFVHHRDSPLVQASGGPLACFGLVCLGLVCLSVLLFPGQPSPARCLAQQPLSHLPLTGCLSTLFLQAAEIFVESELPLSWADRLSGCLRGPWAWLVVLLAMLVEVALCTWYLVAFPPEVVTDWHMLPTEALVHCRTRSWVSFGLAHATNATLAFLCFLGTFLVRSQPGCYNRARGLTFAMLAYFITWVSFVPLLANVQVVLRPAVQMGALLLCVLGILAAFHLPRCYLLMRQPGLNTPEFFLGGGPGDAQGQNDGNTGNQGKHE
Assay: Receptor-based assay: sweetener EC50 enhancement ratio with and without test compound
Type: cell-based
Details: for Sucrose Enhancement EC50 Ratio: sweetener sucrose; for Sucralose Enhancement EC50 Ratio: sweetener sucralose; for Fructose Enhancement EC50 Ratio: sweetener fructose
Protocol: Potencies (EC50 values) for the sweeteners sucrose, sucralose, and fructose were measured against the T1R2/T1R3 taste receptor. EC50 was determined using the sweetener alone and in the presence of 1 μM, 3 μM, 10 μM, or 50 μM of test compound. EC50 ratios were calculated by the ratio of potency with and without the test compound. An “A” value indicates an enhancement ratio of greater than 1 and less than 10. A “B” value indicates an enhancement ratio from 10 to 20. A “C” value indicates an enhancement ratio greater than 20.

Row | SMILES | Sucralose Enhancement EC50 Ratio (10 μM test compound) | Sucrose Enhancement EC50 Ratio (10 μM test compound) | Sucrose Enhancement EC50 Ratio (1 μM test compound) | Sucralose Enhancement EC50 Ratio (3 μM test compound) | Sucrose Enhancement EC50 Ratio (3 μM test compound) | Fructose Enhancement EC50 Ratio (10 μM test compound) | Fructose Enhancement EC50 Ratio (50 μM test compound)
1 | Cc1nc2cccc(O[C@H]3CC[C@H](N)CC3)c2c(N)c1C(=O)O.Cl [Compound 302, 4-Amino-5-((trans-4-aminocyclohexyl)oxy)-2-methylquinoline-3-carboxylic acid (HCl salt)] |  |  | A (an enhancement ratio of greater than 1 and less than 10) |  | A (an enhancement ratio of greater than 1 and less than 10) |  | 
2 | Cc1nc2cccc(O[C@H]3CC[C@H](NC(=O)COCCOCc4ccccc4)CC3)c2c(N)c1C(=O)O [Compound 333] |  |  | A (an enhancement ratio of greater than 1 and less than 10) |  | B (an enhancement ratio from 10 to 20) |  | 
3 | COCCOCC(=O)N[C@H]1CC[C@H](Oc2cccc3nc(C)c(C(=O)O)c(N)c23)CC1 [Compound 336] |  |  | A (an enhancement ratio of greater than 1 and less than 10) | B (an enhancement ratio from 10 to 20) | C (an enhancement ratio greater than 20) |  | 
4 | Cc1nc2cccc(O[C@H]3CC[C@H](NC(=O)COCC4CC4)CC3)c2c(N)c1C(=O)O [Compound 313] |  | A (an enhancement ratio of greater than 1 and less than 10) | A (an enhancement ratio of greater than 1 and less than 10) |  | C (an enhancement ratio greater than 20) |  | 
5 | Cc1cc(C)nc(N[C@H]2CC[C@H](Oc3cccc4nc(C)c(C(=O)O)c(N)c34)CC2)n1 [Compound 702, 4-Amino-5-((trans-4-((4,6-dimethylpyrimidin-2-yl)amino)cyclohexyl)oxy)-2-methylquinoline-3-carboxylic (HCl)] | B (an enhancement ratio from 10 to 20) | A (an enhancement ratio of greater than 1 and less than 10) | A (an enhancement ratio of greater than 1 and less than 10) | A (an enhancement ratio of greater than 1 and less than 10) | A (an enhancement ratio of greater than 1 and less than 10) |  | 
6 | Cc1nc2cccc(O[C@H]3CC[C@H](NC(=O)CN4CCOCC4)CC3)c2c(N)c1C(=O)O.Cl [Compound 600, 4-Amino-2-methyl-5-((trans-4-(2-morpholinoacetamido)cyclohexyl)oxy) quinolone-3-carboxylic acid (HCl)] |  |  | B (an enhancement ratio from 10 to 20) |  | C (an enhancement ratio greater than 20) |  | 
7 | Cc1nc2cccc(O[C@H]3CC[C@H](NC(=O)CN(C)C)CC3)c2c(N)c1C(=O)O [Compound 324] |  |  | A (an enhancement ratio of greater than 1 and less than 10) | A (an enhancement ratio of greater than 1 and less than 10) | A (an enhancement ratio of greater than 1 and less than 10) |  | 
8 | Cc1nc2cccc(O[C@H]3CC[C@H](NC(=O)[C@@H]4CCCN4)CC3)c2c(N)c1C(=O)O [Compound 504] |  |  | A (an enhancement ratio of greater than 1 and less than 10) |  | A (an enhancement ratio of greater than 1 and less than 10) |  | 
9 | Cc1nc2cccc(O[C@H]3CC[C@H](NC(=O)COC4CCOCC4)CC3)c2c(N)c1C(=O)O [Compound 314] |  |  | B (an enhancement ratio from 10 to 20) | B (an enhancement ratio from 10 to 20) |  |  | 
10 | CCCCOCC(=O)N[C@H]1CC[C@H](Oc2cccc3nc(C)c(C(=O)O)c(N)c23)CC1 [Compound 335] |  |  | B (an enhancement ratio from 10 to 20) | C (an enhancement ratio greater than 20) | C (an enhancement ratio greater than 20) |  | 
11 | CCc1nc2cccc(OC3CCCCC3)c2c(N)c1C(=O)O [Compound 200] |  | A (an enhancement ratio of greater than 1 and less than 10) | A (an enhancement ratio of greater than 1 and less than 10) |  | A (an enhancement ratio of greater than 1 and less than 10) |  | 
12 | Cc1nc2cccc(O[C@H]3CC[C@@H](O)CC3)c2c(N)c1C(=O)O [Compound 108] |  | A (an enhancement ratio of greater than 1 and less than 10) | A (an enhancement ratio of greater than 1 and less than 10) |  | A (an enhancement ratio of greater than 1 and less than 10) |  | 

The next lines start with results.

Row | Sucralose Enhancement EC50 Ratio (10 μM test compound) | Sucrose Enhancement EC50 Ratio (10 μM test compound) | SMILES | Sucrose Enhancement EC50 Ratio (1 μM test compound) | Sucralose Enhancement EC50 Ratio (3 μM test compound) | Sucrose Enhancement EC50 Ratio (3 μM test compound) | Fructose Enhancement EC50 Ratio (10 μM test compound) | Fructose Enhancement EC50 Ratio (50 μM test compound)
13 | B (an enhancement ratio from 10 to 20) | B (an enhancement ratio from 10 to 20) | COc1ccnc(N[C@H]2CC[C@H](Oc3cccc4nc(C)c(C(=O)O)c(N)c34)CC2)n1 [Compound 707] | A (an enhancement ratio of greater than 1 and less than 10) | A (an enhancement ratio of greater than 1 and less than 10) | A (an enhancement ratio of greater than 1 and less than 10) | A (an enhancement ratio of greater than 1 and less than 10) | A (an enhancement ratio of greater than 1 and less than 10)
14 |  | C (an enhancement ratio greater than 20) | CCOC(C)C(=O)N[C@H]1CC[C@H](Oc2cccc3nc(C)c(C(=O)O)c(N)c23)CC1 (stereo partly drawn) [Compound 315] | B (an enhancement ratio from 10 to 20) |  | B (an enhancement ratio from 10 to 20) |  | 
15 | C (an enhancement ratio greater than 20) | C (an enhancement ratio greater than 20) | Cc1ccnc(N[C@H]2CC[C@H](Oc3cccc4nc(C)c(C(=O)O)c(N)c34)CC2)n1 [Compound 708] | A (an enhancement ratio of greater than 1 and less than 10) | C (an enhancement ratio greater than 20) | C (an enhancement ratio greater than 20) | A (an enhancement ratio of greater than 1 and less than 10) | 
16 | B (an enhancement ratio from 10 to 20) | B (an enhancement ratio from 10 to 20) | COc1cc(OC)nc(N[C@H]2CC[C@H](Oc3cccc4nc(C)c(C(=O)O)c(N)c34)CC2)n1 [Compound 710] | A (an enhancement ratio of greater than 1 and less than 10) | A (an enhancement ratio of greater than 1 and less than 10) | A (an enhancement ratio of greater than 1 and less than 10) | A (an enhancement ratio of greater than 1 and less than 10) | A (an enhancement ratio of greater than 1 and less than 10)
17 |  | C (an enhancement ratio greater than 20) | Cc1nc2cccc(O[C@H]3CC[C@H](CN)CC3)c2c(N)c1C(=O)O.Cl [Compound 602] | A (an enhancement ratio of greater than 1 and less than 10) |  | A (an enhancement ratio of greater than 1 and less than 10) | A (an enhancement ratio of greater than 1 and less than 10) | 
18 |  | C (an enhancement ratio greater than 20) | Cc1nc2cccc(O[C@H]3CC[C@H](CO)CC3)c2c(N)c1C(=O)O [Compound 109] | B (an enhancement ratio from 10 to 20) |  | C (an enhancement ratio greater than 20) |  | 
